Laboratory results published in patent US20230097293A1, “LMP1 TARGETING LANTHANIDE COMPLEXES AND METHODS OF USE THEREOF” (BP InnoMed Limited, priority 2021, published 2023).
Where a SMILES comes first, the peptide text is derived from it. [ ]: non-standard residue; d: D form. dPra = C#CC[C@@H](N)C(=O)O; Ahx = NCCCCCC(=O)O

How the values were obtained:
Format in all cases: cell-based
[1] = test system: NF-κB p65 and p50; experiment: Western blot of nuclear NF-κB p65 and p50; conditions: for nuclear p65 and p50 expression: LCL3 and AFB1, TNFα 10 ng/mL pre-treatment, compared with control
Method: Western blot analysis was also carried out to validate the above imaging results for the components in NF-κB pathway. The LMP1-overexpressing LCL3 and AFB1 cell lines were used for this analysis. […] After 24 hours incubation, the nuclear extracts were separated for each treatment, and the expression of NF-κB p65 and p50 was detected by Western blot analysis. […] Western blots of individual replicates for NF-κB p65 and p50 in different cell lines were illustrated in FIG. 14. […] The reduction in NF-κB activity can contribute to the cytotoxicity of the three compounds towards LMP1-overexpressing cells.
Cells with different treatments were harvested and washed with phosphate-buffered saline (PBS). Lysis buffer supplied by 1X proteases-phosphatase inhibitor were added into the cells for 5 min on ice. Then the samples were centrifuged at 14,000×g at 4° C. for 20 minutes. The fractionated cell lysates were subjected to SDS-PAGE gel and transferred onto PVDF membranes. Membranes were then blocked by 3% non-fat milk for 30 minutes at room temperature and incubated with specific primary antibodies at 4° C. overnight. They were then washed with TBST buffer and incubated with corresponding secondary antibodies for 1 h at room temperature. Then, the membranes were washed with TBST, and chemiluminescence substrate was added onto the membrane surface. ChemiDoc XRS system and Image Lab Software were used to visualize the blot.

[2] = test system: NF-κB p65; experiment: Immunofluorescence imaging of NF-κB p65 after TNFα activation; conditions: for effect on p65 fluorescence signal: LCL3, 10 μM, 24 h, TNFα 10 ng/ml preincubation
Method: (§1) We then investigate the inhibitory effects of our anti-LMP1 conjugates on the NF-κB pathway, which is one of the major pathways that EBV has hijacked for promoting cell growth and proliferation in EBV-associated tumours. Since NF-κB is typically activated by the canonical pathway which involves the nuclear translocation of the heterodimer of p50 and p65, immunofluorescence imaging of NF-κB p65 was then performed. Tumour necrosis factor alpha (TNFα) was added to these tumour cells, so as to activate the NF-κB pathway.
These assays were prepared and conducted at room temperature, unless otherwise stated. Cells with different treatment were fixed by formalin for 15 min. The samples were then washed with PBS and 0.2% Triton-X buffer was added onto the samples for 15 min. 3% BSA in PBS was served as the blocking buffer and applied onto the sample for 30 minutes at room temperature. The primary antibody was diluted in blocking buffer and added onto the sample at 4° C. overnight. The samples were washed with PBS and corresponding secondary antibodies were added over 1 h. Samples were washed with PBS and mountant was applied to each sample. Images were acquired either using a 370 nm laser excitation or from a 370 nm LED excitation of a Nikon Eclipse Ti2 Confocal Microscope. NIR images were captured by a NIRvana TE 640 camera. The signal enhancement of the C666-1 images were obtained by enhancing the exposure of the captured images by the NIS element AR software. Multiphoton microscopy was conducted by Leica TCS SP8 MP System.

[3] = MTT cytotoxicity assay, all selected cell lines; conditions: read-out: LC50 (the source's name)
Method: (§2) To study the effects of the designed probes on cell survival, the MTT cytotoxicity assay was carried out in several highly LMP1-positive (LCL3, AFB1, AG876), weakly LMP1-positive (C666-1) and LMP1- negative cell lines (HeLa, MRCS), as shown in FIG. 9.
(§3) LCL3, AG876, AFB1 and C666-1 cells were grown in RPMI-1640 medium. HeLa cells were cultivated in DMEM medium and MRCS cells are cultivated in MEM medium (Gibco, USA). All media are supplemented with 10% fetal bovine serum and 1% penicillin/streptomycin antibiotics. All the cells are cultivated in a humidified incubator with 5% CO2 at 37° C. The pTRE-EGFP plasmid was transduced into LCL3 cells as previously mentioned.

[4] = test system: weakly LMP1-positive (C666-1) and LMP1-negative cell lines (HeLa, MRCS); experiment: MTT cytotoxicity assay, weakly LMP1-positive or LMP1-negative cells
Method: as §2, §3

[5] = test system: NF-κB activity; experiment: pTRE-EGFP reporter of NF-κB activity in LCL3 cells; conditions: LCL3, 6 hours
Method: as §1
The antibodies including anti-LMP1 were purchased from Kerafast, while anti-NF-κB p65, anti-NF-κB p105/50, anti-histone H3, anti-GAPDH were purchased from Cell Signaling Technology. Anti-rabbit IgG HRP-linked, anti-mouse IgG HRP-linked, protease/phosphatase inhibitor cocktail were purchased from Cell Signaling Technology. Alexa Fluor 488-conjugated goat anti-mouse IgG, NucBlue fixed cell ready probes (DAPI), and ProLong gold antifade mountant with DAPI were purchased from Invitrogen. The transcriptional response element (TRE)-fluorescent protein reporter, pTRE-EGFP plasmid, was constructed as previously reported.
LCL3, AG876, AFB1 and C666-1 cells were grown in RPMI-1640 medium. HeLa cells were cultivated in DMEM medium and MRCS cells are cultivated in MEM medium (Gibco, USA). All media are supplemented with 10% fetal bovine serum and 1% penicillin/streptomycin antibiotics. […]

Structure (SMILES) | nuclear p65 and p50 expression [1] | effect on p65 fluorescence signal [2] | CC50 [3] [µM] | changes in expression of p65 and p50 ([1]; C666-1 and HeLa cells) | cytotoxicity [4] | effect on NF-κB pathway (p65 fluorescence) ([2]; LMP1-negative HeLa and weak LMP1-expressing C666-1 cells) | GFP reporter signals [5]
C#CC[C@@H](N)C(=O)N[C@@H](CCCCN)C(=O)NCCCCCC(=O)N[C@@H](CCCCN)C(=O)N[C@@H](CC(C)C)C(=O)N[C@@H](CC(=O)O)C(=O)N[C@@H](CC(C)C)C(=O)N[C@@H](C)C(=O)N[C@@H](CC(C)C)C(=O)N[C@@H](CCCCN)C(=O)N[C@@H](C)C(=O)N[C@@H](C)C(=O)N[C@@H](C)C(=O)N[C@@H](C)C(=O)N[C@@H](CCCCN)C(=O)N[C@H](C(=O)N[C@H](C(=O)N[C@@H](CCSC)C(=O)N[C@@H](CO)C(=O)N[C@@H](CC(=O)O)C(=O)N[C@@H](CCCCN)C(=O)N[C@@H](Cc1c[nH]c2ccccc12)C(=O)N[C@@H](CCCCN)C(=O)N[C@@H](CCCNC(=N)N)C(=O)N[C@H](CCCNC(=N)N)C(=O)N[C@@H](CCCNC(=N)N)C(=O)N[C@@H](CCCCN)C(=O)O)C(C)C)[C@@H](C)CC [P19C, reference compound] (H-[dPra]K[Ahx]KLDLALKAAAAKIVMSDKWKR[dR]RK-OH; N-terminus and C-terminus assumed) | no obvious change | no significant effect | > 200 | – | – | – | –
C#CC[C@@H](N)C(=O)N[C@@H](CCCCN)C(=O)NCCCCCC(=O)N[C@@H](CCCCN)C(=O)N[C@@H](CC(C)C)C(=O)N[C@@H](CC(=O)O)C(=O)N[C@@H](CC(C)C)C(=O)N[C@@H](C)C(=O)N[C@@H](CC(C)C)C(=O)N[C@@H](CCCCN)C(=O)N[C@@H](Cc1ccccc1)C(=O)N[C@@H](Cc1c[nH]c2ccccc12)C(=O)N[C@@H](CC(C)C)C(=O)N[C@@H](Cc1ccc(O)cc1)C(=O)N[C@@H](CCCCN)C(=O)N[C@H](C(=O)N[C@H](C(=O)N[C@@H](CCSC)C(=O)N[C@@H](CO)C(=O)N[C@@H](CC(=O)O)C(=O)N[C@@H](CCCCN)C(=O)N[C@@H](Cc1c[nH]c2ccccc12)C(=O)N[C@@H](CCCCN)C(=O)N[C@@H](CCCNC(=N)N)C(=O)N[C@H](CCCNC(=N)N)C(=O)N[C@@H](CCCNC(=N)N)C(=O)N[C@@H](CCCCN)C(=O)O)C(C)C)[C@@H](C)CC [P19, Pra-KAhx-K-LDLALK-FWLY-K-IVMSDKW-K-RrRK] (H-[dPra]K[Ahx]KLDLALKFWLYKIVMSDKWKR[dR]RK-OH; N-terminus and C-terminus assumed) | significantly weakened | significant suppression | – | relatively minor | relatively low | did not exhibit any effect | decreased
